What is called IC50 is the concentration that gives 50% inhibition.

This is an account of results in US9040259B2, “Production of polyketides and other natural products” (Buck Institute for Research on Aging, priority 2002, dated 2015).

Where two headings read alike, the source gives them in different places.

The conditions of test [1]: compared to rapamycin; Wong et al., 1998; cited from earlier work.
Test [2] relates to HT29 (colon). Description: MTT growth inhibition assay, HT29 (colon) tumour cell line. The class given is cell-based, human. The settings on record: for IC50: concentration giving 50% of maximum inhibition, read-out: IC50 (row head: HT29 rIC50). Here is the method:
(§1) Growth inhibition of adherent human tumour cell lines of solid malignancies HT29 (colon) and MCF-7 (breast) was tested in vitro using an MTT (3-(4,5-dimethylthiazol-2-yl)-2,5-diphenyltetrazolium bromide) assay using micro-titre plates (Sieuwerts, A. M., et al., 1995). All cell lines were obtained from either the ATCC (American Type Culture Collection) or ECACC (European Collection of Cell Cultures). All cell lines were grown from frozen stocks and passaged at least once prior to use in RPMI 1640. Cells were harvested from sub-confluent cultures using minimal trypsinization. Cells were diluted to the appropriate density for each cell line (dependent on cell doubling time) in RPMI 1640, and seeded in 60 wells of a 96 well plate in a volume of 100 μl per well (i.e. outside wells of the plate were not used). Plates were incubated at 37° C. overnight. Following this incubation, log scale dilutions of reference and test substances were added in 100 μl per well, 6 replicates were used to test all test compounds, reference compounds and medium controls. Plates were incubated for a further 72 h prior to analysis. MTT (5 mg/ml) was added to each well and plates were re-incubated for 3-4 h. Unreacted MTT was removed from the wells and formazan crystals formed from the MTT were dissolved in DMSO and characteristic absorbance read at 570 nm.
(Formazan colour is commonly taken as a measure of viable cells.)

The test system of test [3] is MCF-7 (breast). Description: MTT growth inhibition assay, MCF-7 (breast) tumour cell line. The class given is cell-based, human. The settings on record: MCF-7 cell line, 72 h; for IC50: concentration giving 50% of maximum inhibition, read-out: IC50 (row head: MCF-7 rIC50). How it is done:
as §1

The test system of test [4] is splenic lymphocytes isolated from C57BL/6 mice. Briefly: Mixed lymphocyte reaction (MLR), [3H] thymidine incorporation. The class given is cell-based. The conditions noted are these: IC50 quoted as a ratio of the rapamycin IC50; 72 h, 37° C. How it is done: Originally developed to assess tissue compatibility prior to allografts, MLR offers an established model for immune reaction in vitro (SOULILLOU, J. P., et al. (1975); T. Meo. “Immunological Methods”, L. Lefkovits and B. Pernis, Eds., Academic Press, N.Y. pp. 227-239 (1979). MLR was performed by mixing splenic lymphocytes isolated from C57BL/6 mice (5×10^5 cells) with inhibited splenic lymphocytes from CBA mice (2.5×10^5 cells). The inhibited CBA lymphocytes induced a proliferative response in C57BU6 lymphocytes and this was determined by [^3H] thymidine incorporation into DNA as a measure of proliferation of splenic lymphocytes isolated from C57BU6 mice. The anti-proliferative effect was assayed for in the presence of log scale dilutions of reference compounds, test compounds and media controls over a 72 h period at 37° C. The concentration of each test compound and reference compound, which inhibited lymphocyte proliferation by 50% (IC50), compared to control proliferation, was calculated for each cell line and quoted as a ratio of the concentration of rapamycin required to inhibit lymphocyte proliferation by 50% (rIC50), see Table XIV.
A general note: Dividing cells build labelled thymidine or BrdU into new DNA.

In test [5] the test system is Candida albicans DSM 1386. Briefly: Anti-fungal assay, NCCLS M27-A microtitre broth dilution. Format: cell-based. The conditions noted are these: MIC as a ratio of the rapamycin MIC; 37° C., 24 h. Here is the method: (§2) The comparative anti-fungal activities of reference and test compounds were determined against pathogenic fungi Candida albicans DSM 5816, Candida albicans DSM 1386 and Candida glabrata DSM 11226. This was achieved using a microtitre plate adaption of the NCCLS Reference Method for Broth Dilution Antifungal Susceptibility Testing for Yeasts: Approved Standard (M27-A, vol. 17 No. 9. (1997)). Yeast strains were inoculated (10^4 cfu/ml) to RPMI 1640 media containing […] MOPS, pH 7. Growth was determined in the presence of log scale dilutions of reference compounds, test compounds and media controls after incubation with shaking at 37° C., 24 h. Minimum inhibitory concentration (MIC) and minimum fungicidal activity (MFC) were determined for test compounds and expressed as a ratio of the rapamycin minimum inhibitory concentration (rMIC respectively), see Table XV.
On the technique in general: Dilution methods test growth across graded concentrations, often in twofold steps.

The subject of test [6] is Candida albicans DSM 5816. The description is as above. The class given is cell-based. The settings on record: MIC as a ratio of the rapamycin MIC; 37° C., 24 h. How it is done: as §2
In test [7] the test system is Candida glabrata DSM 11226. The test is described as above. Format: cell-based. The settings on record: MIC as a ratio of the rapamycin MIC; 37° C., 24 h. How it is done:
as §2

For test [8] the following is noted: compared to rapamycin; Box et al., 1995; cited from earlier work.
For test [9], the target named is FKBP12 (Homo sapiens, UniProt P62942). The settings on record: compared to rapamycin; Box et al., 1995; cited from earlier work.
For test [10], the system named is murine splenic T cells. The conditions noted are these: compared to rapamycin; Box et al., 1995; cited from earlier work.
The test system of test [11] is murine splenic B cells. The settings on record: compared to rapamycin; Box et al., 1995; cited from earlier work.
Test [12] has as its system mixed lymphocyte reaction. The settings on record: Nishida et al., 1995; cited from earlier work.
The conditions of test [13]: compared to rapamycin; Khaw et al., 1998; cited from earlier work.

Sequence of FKBP12 (P62942 whole entry): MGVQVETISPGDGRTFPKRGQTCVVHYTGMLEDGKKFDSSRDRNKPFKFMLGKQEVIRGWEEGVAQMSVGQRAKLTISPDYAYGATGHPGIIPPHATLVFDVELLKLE

For the molecule `COC1CC2CCC(C)C(O)(O2)C(=O)C(=O)N2CCCC2C(=O)OC(C(C)CC2CCC(O)C(OC)C2)CC(=O)C(C)/C=C(\C)C(O)C(OC)C(=O)C(C)CC(C)/C=C/C=C/C=C/1C` (stereo not shown) [prolylrapamycin, reference compound], the antifungal activities entry in test [1] is on record as “lower than that of rapamycin”.
Turning to `CO[C@@H]1C[C@H](C[C@@H](C)[C@@H]2CC(=O)[C@H](C)/C=C(\C)[C@@H](O)[C@@H](O)C(=O)[C@H](C)C[C@H](C)/C=C/C=C/C=C(\C)[C@@H](O)C[C@@H]3CC[C@@H](C)[C@](O)(CC(=O)N4CCCC[C@H]4C(=O)O2)O3)CC[C@H]1O` [Compound 9, 9-deoxo-16-O-desmethyl-27-O-desmethyl-rapamycin], in test [2] (72 h), the “Im (maximum percentage of inhibition observed)” value turned out to be 35% and the IC50 was determined as 12.6 nM. For the same molecule, in test [3], the “Im (maximum percentage of inhibition observed)” value was determined as 40% and the half-maximal inhibitory concentration (IC50) is 17.8 nM. Further, the “MLR rIC50” value in test [4] was found to be 6.5. For the same molecule, the “C. albicans DSM 1386 rMIC” value in test [5] worked out at 1. Moreover, in test [6], the “C. albicans DSM 5816 rMIC” value was found to be 1. The “C. glabrata DSM 11226 rMIC” value in [7] is reported as 1.
`CO[C@@H]1C[C@H](C[C@@H](C)[C@@H]2CC(=O)[C@H](C)/C=C(\C)[C@@H](O)CC(=O)[C@H](C)C[C@H](C)/C=C/C=C/C=C(\C)[C@@H](O)C[C@@H]3CC[C@@H](C)[C@](O)(CC(=O)N4CCCC[C@H]4C(=O)O2)O3)CC[C@H]1O` [Compound 6, 9-deoxo-16-O-desmethyl-27-desmethoxy-rapamycin]: in [2] (72 h), the “Im (maximum percentage of inhibition observed)” value came out at 38% and the 50% inhibitory concentration (IC50) amounted to 25 nM. Also, in test [3], the “Im (maximum percentage of inhibition observed)” value is listed as 48% and the IC50 worked out at 126 nM. Further, in test [4], the “MLR rIC50” value amounted to 8.8. In addition, in test [5], the “C. albicans DSM 1386 rMIC” value is given as 5. Besides, the “C. albicans DSM 5816 rMIC” value in test [6] is 1. Further, the “C. glabrata DSM 11226 rMIC” value in [7] is 5.
On to `CO[C@H]1C[C@@H]2CC[C@@H](C)[C@@](O)(O2)C(=O)C(=O)N2CCCC[C@H]2C(=O)O[C@H]([C@H](C)C[C@@H]2CC[C@@H](O)[C@H](OC)C2)CC(=O)[C@H](C)/C=C(\C)[C@@H](O)[C@@H](O)C(=O)[C@H](C)C[C@H](C)/C=C/C=C/C=C/1C` [Compound 21, 27-O-desmethyl-rapamycin], for which the antifungal activity entry in test [8] was “lower than that of rapamycin”. Moreover, the “inhibition of FKBP12 PPlase activity” value in test [9] is listed as “seemed to be increased”. The “inhibition of ConA-stimulated proliferation of murine splenic T cells” value in test [10] is recorded as “decreased when compared to rapamycin”. In addition, the “inhibition of LPS-stimulated proliferation of murine splenic B cells” value in test [11] was “decreased when compared to rapamycin”. In addition, in test [1], the antifungal activities result is recorded as “lower than that of rapamycin”.
`CO[C@H]1C[C@@H]2CC[C@@H](C)[C@](O)(CC(=O)N3CCCC[C@H]3C(=O)O[C@H]([C@H](C)C[C@@H]3CC[C@@H](O)[C@H](OC)C3)CC(=O)[C@H](C)/C=C(\C)[C@@H](O)[C@@H](OC)C(=O)[C@H](C)C[C@H](C)/C=C/C=C/C=C/1C)O2` [Compound 19, 9-deoxo-rapamycin]: the “mixed lymphocyte reaction (MLR) inhibitory activity” value in test [12] was “more significant decrease in activity”.
Regarding 27-desmethoxy-rapamycin [Compound 22], the antifungal activities result in test [1] was “lower than that of rapamycin”.
For the molecule `CC1=CC(C)C(=O)CC(C(C)CC2CCC(O)C(O)C2)OC(=O)C2CCCCN2C(=O)C(=O)C2(O)OC(CCC2C)CC(O)C(C)=CC=CC=CC(C)CC(C)C(=O)CC1O` (stereo not shown) [Compound 3, 16-O-desmethyl-27-desmethoxy-39-O-desmethyl-rapamycin], in [2] (72 h), the “Im (maximum percentage of inhibition observed)” value came out at 37% and the IC50 stood at 63.1 nM. Further, in [3], the “Im (maximum percentage of inhibition observed)” value was found to be 38% and the 50% inhibitory concentration (IC50) amounted to 20 nM. The “MLR rIC50” value in [4] was 7.9. For the same molecule, the “C. albicans DSM 1386 rMIC” value in test [5] is listed as 1. In [6], the “C. albicans DSM 5816 rMIC” value is listed as 1. The “C. glabrata DSM 11226 rMIC” value in test [7] was 1.
As to 4-hydroxyprolyl-26-desmethoxy-rapamycin, in test [13], the “inhibitory activity in proliferation assays” value is recorded as “significantly less than that of rapamycin”.
With `CC1=CC(C)C(=O)CC(C(C)CC2CCC(O)C(O)C2)OC(=O)C2CCCCN2C(=O)CC2(O)OC(CCC2C)CC(O)C(C)=CC=CC=CC(C)CC(C)C(=O)CC1O` (stereo not shown) [Compound 1, 9-deoxo-16-O-desmethyl-27-desmethoxy-39-O-desmethyl-rapamycin], the “Im (maximum percentage of inhibition observed)” value in test [2] (72 h) and in test [3] was 38% in each case. The half-inhibitory concentration (IC50) worked out at 50.1 nM in test [2] (72 h) and 3.2 nM in test [3]. Also, the “MLR rIC50” value in test [4] amounted to 9.4. In addition, in [5], the “C. albicans DSM 1386 rMIC” value came out at 5. For the same molecule, in [6], the “C. albicans DSM 5816 rMIC” value is reported as 1. Further, the “C. glabrata DSM 11226 rMIC” value in test [7] stood at 5.
`CO[C@H]1C[C@@H]2CC[C@@H](C)[C@@](O)(O2)C(=O)C(=O)N2CCCC[C@H]2C(=O)O[C@H]([C@H](C)C[C@@H]2CC[C@@H](O)[C@H](OC)C2)CC(=O)[C@H](C)/C=C(\C)[C@@H](O)[C@@H](OC)C(=O)[C@H](C)C[C@H](C)/C=C/C=C/C=C/1C` [rapamycin, reference compound]: the results for the “Im (maximum percentage of inhibition observed)” value in test [2] (72 h) and in test [3] were 40% and 56%, respectively. For the same molecule, the IC50 in test [2] (Homo sapiens, HT-29, 72 h) amounted to 200 nM; in test [3] (Homo sapiens, MCF7), 0.03 nM.
In the case of `COC1CC2CCC(C)C(O)(CC(=O)N3CCCCC3C(=O)OC(C(C)CC3CCC(O)C(OC)C3)CC(=O)C(C)C=C(C)C(O)CC(=O)C(C)CC(C)C=CC=CC=C1C)O2` (stereo not shown) [Compound 16, 9-deoxo-27-desmethoxy-rapamycin], in test [2] (72 h), the “Im (maximum percentage of inhibition observed)” value turned out to be 25% and the IC50 was 15.8 nM. Also, in test [3], the “Im (maximum percentage of inhibition observed)” value came out at 32% and the IC50 stood at 2 nM. Moreover, the “MLR rIC50” value in test [4] is on record as >14.7. Further, in [5], the “C. albicans DSM 1386 rMIC” value is recorded as 5. Also, the “C. albicans DSM 5816 rMIC” value in [6] is on record as 1. For the same molecule, the “C. glabrata DSM 11226 rMIC” value in test [7] is on record as 5.
Consider `CO[C@H]1C[C@@H]2CC[C@@H](C)[C@](O)(CC(=O)N3CCCC[C@H]3C(=O)O[C@H]([C@H](C)C[C@@H]3CC[C@@H](O)[C@H](O)C3)CC(=O)[C@H](C)/C=C(\C)[C@@H](O)[C@@H](O)C(=O)[C@H](C)C[C@H](C)/C=C/C=C/C=C/1C)O2` [Compound 8, 9-deoxo-27-O-desmethyl-39-O-desmethyl-rapamycin], for which, in test [2] (72 h), the “Im (maximum percentage of inhibition observed)” value is 30% and the IC50 stood at 63 nM. In test [3], the “Im (maximum percentage of inhibition observed)” value came to 38% and the IC50 turned out to be 20 nM. The “MLR rIC50” value in test [4] came out at 4.1. In addition, the “C. albicans DSM 1386 rMIC” value in test [5] was 1. In addition, the “C. albicans DSM 5816 rMIC” value in test [6] was found to be 1. For the same molecule, in test [7], the “C. glabrata DSM 11226 rMIC” value is reported as 1.
